Assay [1] deals with ENPP-1 (Ectonucleotide Pyrophosphatase/Phosphodiesterase 1) (Homo sapiens (Human), UniProt P22413). The assay can be described thus: ENPP1 inhibition assay (AMP Glo, cGAMP substrate). It counts as biochemical.
Assay [2] deals with IFN-β release in differentiated THP-1 cells. Put plainly: IFN-β cytokine release assay in THP-1. As to conditions: Homo sapiens, read-out: EC50 (μM) @ 1 μM of cGAMP; IFN-β release over cGAMP induced release, THP-1, 1 μM cGAMP. It counts as cell-based. On the procedure:
Percent release of Interferon Beta (IFN-03) was determined in acute monocytic leukemia (THP-1; ATCC® TIB-202™) cell line. THP-1 cells (0.3×10^6 cells/well) were differentiated using phorbol 12-myristate 13-acetate (PMA, 50 ng/mL; Cat #P8139, Sigma) and incubated for 24 h at 37° C., 5% CO2 in an incubator (cell culture conditions) prior to treating with serial dilutions of compounds (3 fold, 5 point dose response starting at […]). After treatment with the compounds cells were further incubated for 2 h under cell culture conditions and then exposed to 2′,3′-cGAMP (c-GAMP, 1 μM; Cat #SML 1229, Sigma). Differentiated THP-1 cells were further cultured for 6 h after which the supernatant was harvested, and ELISA was performed as per the manufacturer's protocol (Human IFN-beta Quantikine ELISA Kit; Cat #DIFNB0, R&D systems). Plates were read in Biotek plate reader by measuring absorbance at 450 nm.

The test system of assay [3] is IP-10 release in differentiated THP-1 cells. Put plainly: IP-10 cytokine release assay in THP-1 cell lines. It counts as cell-based, Human. The following applies: for EC50: Homo sapiens. On the procedure: Percent release of Interferon gamma-induced protein 10 (IP-10) was determined in acute monocytic leukemia (THP-1; ATCC® TIB-202™) cell line. THP-1 cells (0.2×10^6 cells/well) were differentiated using phorbol 12-myristate 13-acetate (PMA, 10 nM (final concentration); Cat #P8139, Sigma) and incubated for 24 h at 37° C., 5% CO2 in an incubator (cell culture conditions) prior to treating with serial dilutions of compounds (3 fold, 6 point dose response starting at 10 μM). After treatment with the compounds cells were further incubated for 2 h under cell culture conditions and then exposed to 2′,3′-cGAMP (c-GAMP, 1 μM (final concentration); Cat #SML 1229, Sigma). Differentiated THP-1 cells were further cultured for 24 h after which the supernatant was harvested, and ELISA was performed as per the manufacturer's protocol (BD optEIA Human IP-10 ELISA Set; Cat #550926 & 550534, BD Biosciences). Plates were read in Biotek plate reader by measuring absorbance at 450 nm.
The release of absolute IP-10 in differentiated THP-1 by compounds in the presence of cGAMP was quantified with reference to standard after subtracting blank (negative) reading from the test readings. The absolute release of IP-10 in the presence of cGAMP (1 μM) is given in the bar-graph (FIG.-1) and in the table-B2a.
The release of IP-10 in differentiated THP-1 by compounds over cGAMP induced release at four different concentrations of cGAMP (1, 5, 10 & 30 μM) was quantified with reference to standard by normalizing the blank (negative) subtracted test readings from average of cGAMP activated cells at that particular concentration. The EC50's was calculated by fitting the curve to the “four-parameter variable slope logistic model” using Prism Graph Pad.

Setting [4] is: cGAMP 20 μM substrate, ENPP1 1 nM.
Setting [5] is: read-out: EC50 (μM)@ 1 μM of cGAMP, IP-10 release over cGAMP induced release, THP-1, 1 μM cGAMP.
[6] abbreviates: THP-1, read-out: EC50 (μM)@ 1 μM of cGAMP.

One may read the IC50 as the concentration needed to halve the response being measured. The low end stands for higher potency, the high end for lower potency. One may read the EC50 as the concentration at which the effect is half-maximal.

Where two headings read alike, the source gives them in different places. Where only a bound is given, the exact number is not on record here.

Chain of ENPP-1 (Ectonucleotide Pyrophosphatase/Phosphodiesterase 1) (P22413 whole entry): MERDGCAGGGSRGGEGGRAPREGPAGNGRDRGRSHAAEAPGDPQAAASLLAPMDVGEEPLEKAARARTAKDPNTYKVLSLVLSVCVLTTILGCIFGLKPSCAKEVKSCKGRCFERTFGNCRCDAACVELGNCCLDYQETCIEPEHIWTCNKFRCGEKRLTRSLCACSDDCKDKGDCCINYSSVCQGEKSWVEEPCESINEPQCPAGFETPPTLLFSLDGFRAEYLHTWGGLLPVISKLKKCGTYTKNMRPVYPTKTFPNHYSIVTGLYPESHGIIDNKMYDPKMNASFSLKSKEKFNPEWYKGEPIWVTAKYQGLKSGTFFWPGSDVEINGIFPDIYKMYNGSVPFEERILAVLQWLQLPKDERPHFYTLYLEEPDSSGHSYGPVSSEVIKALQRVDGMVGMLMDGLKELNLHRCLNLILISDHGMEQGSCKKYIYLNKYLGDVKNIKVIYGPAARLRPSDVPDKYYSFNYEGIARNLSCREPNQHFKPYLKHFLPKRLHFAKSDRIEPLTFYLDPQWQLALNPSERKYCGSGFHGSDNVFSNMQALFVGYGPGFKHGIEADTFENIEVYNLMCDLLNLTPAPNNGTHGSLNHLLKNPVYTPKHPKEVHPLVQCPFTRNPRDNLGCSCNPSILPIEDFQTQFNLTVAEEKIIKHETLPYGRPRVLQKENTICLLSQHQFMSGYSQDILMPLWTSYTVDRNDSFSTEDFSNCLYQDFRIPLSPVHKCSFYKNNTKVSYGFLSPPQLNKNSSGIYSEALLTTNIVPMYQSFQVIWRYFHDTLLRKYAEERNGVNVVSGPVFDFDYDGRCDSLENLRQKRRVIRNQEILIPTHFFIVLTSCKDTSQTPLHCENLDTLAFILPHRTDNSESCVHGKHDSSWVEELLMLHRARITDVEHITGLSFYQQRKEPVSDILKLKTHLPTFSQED

Regarding `Cc1nc(N2CC(CCNS(N)(=O)=O)C2)c2c(C)ccn2n1` [Compound 1.71, 4-(3-(2-sulfamoylaminoethyl)azetidine-1-yl)-2,5-di-methylpyrrolo[1,2-f][1,2,4]triazine], the 50% inhibitory concentration (IC50) in assay [1] (setting [4]) is > 3 µM. Besides, in assay [2], the EC50 was > 30 µM.

Turning to `COc1cc2ncnc(N3CC(C)(CCNS(N)(=O)=O)C3)c2cc1OC` [Compound 1.22, 4-(3-Methyl-3-(2-sulfamoylaminoethyl)azetidine-1-yl)-6,7-dimethoxyquinazoline], the half-inhibitory concentration (IC50) in assay [1] (setting [4]) is 0.009 µM. The EC50 in assay [3] (setting [5]) came out at 0.49 µM.

Consider `COc1cc2nc(C)nc(N3CC(CCNS(N)(=O)=O)C3)c2cc1OC` [Compound 1.17, 4-(3-(2-sulfamoylaminoethyl)azetidine-1-yl)-6,7-dimethoxy-2-methylquinazoline], for which the IC50 in assay [1] came out at 0.057 µM. For the same compound, the 50% effective concentration (EC50) in assay [3] (setting [6]) is 0.129 µM.

`COc1cc2ncnc(N3CC4(CC(N(C)S(N)(=O)=O)C4)C3)c2cc1OC` [Compound 1.46, N-[2-(6,7-di-methoxyquinazoline-4-yl)-2-azaspiro[3.3]hept-6-yl]-N-methylsulfuric diamide] came in with an IC50 in assay [1] (setting [4]) of 0.019 µM. Also, the EC50 in assay [3] (setting [5]) was found to be 0.912 µM.

In assay [1] (setting [4]), `COc1cc2nncc(N3CC(CCNS(N)(=O)=O)C3)c2cc1OC` [Compound 1.27, 4-(3-(2-sulfamoylaminoethyl)azetidine-1-yl)-6,7-dimethoxycinnoline] gave an IC50 of 0.043 µM. In addition, the EC50 in assay [3] (setting [5]) was < 0.1 µM.

For `COc1cc2ncnc(N3CC(CCCS(N)(=O)=O)C3)c2cc1OC` [Compound 1.39, 3-(1-(6,7-dimethoxyquinazolin-4-yl)azetidin-3-yl)propane-1-sulfonamide], the figures for the EC50 in assay [2] and in assay [3] (setting [5]) were > 30 µM and 3.26 µM, respectively.

Regarding `COc1cc2ncnc(N3CC(CCB(O)O)C3)c2cc1OC` [Compound 1.30, 2-(1-(6,7-dimethoxyquinazolin-4-yl)azetidin-3-yl)ethylboronic acid], the IC50 in assay [1] (setting [4]) turned out to be 0.019 µM. The concentration for a half-maximal effect (EC50) was > 30 µM in assay [2] and < 0.12 µM in assay [3] (setting [5]).

In assay [1] (setting [4]), `COc1cc2ncnc(N3CC(CC(=O)NO)C3)c2cc1OC` [Compound 1.28, 2-(1-(6,7-dimethoxyquinazolin-4-yl)azetidin-3-yl)-N-hydroxyacetamide] returned a concentration for half-maximal inhibition (IC50) of 0.026 µM. Also, the EC50 is > 30 µM in assay [2] and 9.56 µM in assay [3] (setting [5]).

For the compound `COc1cc2ncnc(N3CC(CCNS(N)(=O)=O)C3)c2cc1F` [Compound 1.66, 4-(3-(2-sulfamoylaminoethyl)azetidine-1-yl)-6-fluoro-7-methoxy quinazoline], inhibition in assay [1] (setting [4]) was half-maximal at 0.006 µM (IC50). The concentration for a half-maximal effect (EC50) in assay [3] (setting [5]) is < 0.12 µM.

Compound `COc1cc2nc(-c3ccccc3)nc(N3CC(CCNS(N)(=O)=O)C3)c2cc1OC` [Compound 1.21, 4-(3-(2-sulfamoylaminoethyl)azetidine-1-yl)-6,7-dimethoxy-2-phenylquinazoline] showed an IC50 in assay [1] (setting [4]) of 0.092 µM. For the same compound, the 50% effective concentration (EC50) in assay [2] was > 30 µM; in assay [3] (setting [5]) it was 1.88 µM.

With `COc1cc2ncnc(N3CC4(CC(NS(C)(=O)=O)C4)C3)c2cc1OC` [Compound 1.49, N-(2-(6,7-dimethoxyquinazolin-4-yl)-2-azaspiro[3.3]heptan-6-yl)methanesulfonamide], in assay [1] (setting [4]), the half-inhibitory concentration (IC50) was > 1.98 µM. In assay [3] (setting [5]), the EC50 is > 30 µM.

`COc1cc2nc(-c3ccncc3)nc(N3CC(CCNS(N)(=O)=O)C3)c2cc1OC` [Compound 1.35, 4-(3-(2-sulfamoylaminoethyl)azetidine-1-yl)-6,7-dimethoxy-2-(pyridin-4-yl)quinazoline]: the concentration for half-maximal inhibition (IC50) in assay [1] (setting [4]) turned out to be 0.099 µM. For the same compound, the concentration for a half-maximal effect (EC50) in assay [3] (setting [5]) is > 30 µM.

For the compound `COc1cc2ncnc(N3CC(C(C)CNS(N)(=O)=O)C3)c2cc1OC` (centres unmarked) [Compound 1.70, 4-3-(3-sulfamoylaminopropan-2-yl)azetidin-1-yl-6,7-dimethoxyquinazoline], the IC50 in assay [1] (setting [4]) was found to be 0.024 µM. Also, the results for the EC50 in assay [2] and in assay [3] (setting [5]) were 2.82 µM and 0.304 µM, respectively.

`COc1cc(OC)c2ncnc(N3CC(CCNS(N)(=O)=O)C3)c2c1` [Compound 1.50, 4-(3-(2-sulfamoylaminoethyl)azetidine-1-yl)-6,8-di-methoxyquinazoline] had a concentration for half-maximal inhibition (IC50) in assay [1] (setting [4]) of 1.48 µM. The 50% effective concentration (EC50) in assay [3] (setting [5]) is > 30 µM.

`COc1ccc2c(N3CC4(CC(NS(N)(=O)=O)C4)C3)ncnc2c1` [Compound 1.26, 4-(6-sulfamoylamino-2-azaspiro[3.3]heptan-2-yl)-7-methoxyquinazoline] came in with a half-inhibitory concentration (IC50) in assay [1] (setting [4]) of 0.006 µM. Moreover, in assay [3] (setting [5]), the 50% effective concentration (EC50) was < 0.12 µM.

In assay [1] (setting [4]), `COc1cc2ncnc(N3CC(CCC(=O)NO)C3)c2cc1OC` [Compound 1.51, 3-(1-(6,7-dimethoxyquinazolin-4-yl)azetidin-3-yl)-N-hydroxypropanamide] gave a half-maximal inhibitory concentration (IC50) of 0.015 µM. The EC50 in assay [3] (setting [5]) is > 30 µM.

For `COc1cc2ncnc(N3CC(CCNS(C)(=O)=O)C3)c2cc1OC` [Compound 1.6, N-(2-[1-(6,7-dimethoxyquinazolin-4-yl)azetidin-3-yl]ethyl)methanesulfonamide], inhibition in assay [1] (setting [4]) was half-maximal at 0.09 µM (IC50). In addition, the values for the EC50 in assay [2] and in assay [3] (setting [5]) were > 30 µM and 7.78 µM, respectively.

Consider `Cc1ccn2ncnc(N3CC(CCNS(N)(=O)=O)C3)c12` [Compound 1.20, 4-(3-(2-sulfamoylaminoethyl)azetidine-1-yl)-5-methylpyrrolo[1,2-f][1,2,4]triazine], for which 0.07 µM corresponded to half-maximal inhibition in assay [1] (setting [4]) (IC50). The concentration giving a half-maximal response (EC50) in assay [2] is > 30 µM; in assay [3] (setting [5]), 5.73 µM.

Take `COc1cc2ncnc(N3CC(CCNC(C)=O)C3)c2cc1OC` [Compound 1.7, N-(2-[1-(6,7-dimethoxyquinazolin-4-yl)azetidin-3-yl]ethyl)acetamide]: the EC50 in assay [3] (setting [6]) was > 30 µM.

As for `COc1cc2ncnc(N3CC(CCS(N)(=O)=O)C3)c2cc1OC` [Compound 1.52, 2-(1-(6,7-dimethoxyquinazolin-4-yl)azetidin-3-yl)ethanesulfonamide], 0.043 µM corresponded to half-maximal inhibition in assay [1] (setting [4]) (IC50). The EC50 in assay [3] (setting [5]) is > 18.6 µM.

In assay [1] (setting [4]), `COc1cc2ncnc(N3CC(CCN(C4CC4)S(N)(=O)=O)C3)c2cc1OC` [Compound 1.23, 4-(3-(2-((sulfamoyl)(cyclopropyl)amino)ethyl)azetidine-1-yl)-6,7-dimethoxyquinazoline] displayed a half-maximal inhibitory concentration (IC50) of 0.029 µM. The EC50 in assay [2] was > 30 µM; in assay [3] (setting [5]), 7.87 µM.

Regarding `Nc1nc2c(ncn2[C@@H]2O[C@@H]3COP(=O)(O)O[C@H]4[C@@H](O)[C@H](n5cnc6c(N)ncnc65)O[C@@H]4COP(=O)(O)O[C@@H]2[C@@H]3O)c(=O)[nH]1` [CGAMP, 2′,3′-cGAMP, reference compound], the “Percent release IP-10 (Absolute)” value in assay [3] (cGAMP (1 μM) alone, differentiated THP-1) is on record as 5.6%.

Compound `COc1cc2ncnc(N3CC4(CC(N(C5CC5)S(N)(=O)=O)C4)C3)c2cc1OC` [Compound 1.48, N-[2-(6,7-di-methoxyquinazoline-4-yl)-2-azaspiro[3.3]hept-6-yl]-N-cyclopropylsulfuric diamide] had an IC50 in assay [1] (setting [4]) of 0.144 µM. The concentration giving a half-maximal response (EC50) in assay [3] (setting [5]) is > 30 µM.

With `CCOc1cccc2c(N3CC(CCNS(N)(=O)=O)C3)ncnc12` [Compound 1.19, 4-(3-(2-sulfamoylaminoethyl)azetidine-1-yl)-8-ethoxyquinazoline], the IC50 in assay [1] (setting [4]) was found to be 0.084 µM. Besides, the EC50 in assay [3] (setting [5]) was < 0.12 µM.

The record behind these values is US20240352046A1, “ECTONUCLEOTIDE PYROPHOSPHATASE-PHOSPHODIESTERASE-1 (ENPP1) INHIBITORS AND USES THEREOF” (1cBio, Inc., priority 2020, published 2024).
